Reference: patent US20090170178A1, “Cell stimulating device and cell stimulating method” (priority 2003, published 2009)

Assays:
Format in all cases: cell-based, mouse
[1] = tested on: GABAA receptor β2 subunit mRNA in cultured granule cells; details: stimulation at 1.0 and 100 Hz; FIG. 9C; MK801 25 μM, CNQX 10 μM
[2] = tested on: cultured granule cells (release of NRG); experiment: Release of NRG into conditioned medium, read by CREB phosphorylation in granule cells; details: living cultured granule cells
Description: In the case of FIG. 6D, CREB phosphorylation following stimulation of each conditioned medium was confirmed using cerebellar granule cells. Serum-starved cerebellar granule cells were treated (for 5 to 10 minutes) with conditioned media that had been recovered from the culture products of pontine nuclei neurons and granule cells. The conditioned medium recovered from pontine nuclei neurons was used for stimulation in the cases of a, b, and c. In the cases of d, e, and f, a conditioned medium was prepared from the culture product of granule cells.
Stimulated granule cells were immobilized, followed by staining with a phospho-CREB antibody. The soluble forms that had been released after PMA stimulation (60 minutes) were concentrated and added to cultured granule cells. In panels c and f, the conditioned media should contain endogenous NRG and recombinant NRG. The difference between panels b and e indicates a function of NRG cleaved from recombinant mNRG. FIGS. 6E and 6F show the results of identification of an amino acid sequence that is necessary for proteolysis with the use of an ErbB and CREB phosphorylation assay system. The […] sequence was located above extracellular portions of transmembrane domains that were aligned in parallel. When the sequence was subjected to deletion or mutation of lysine to glycine, proteolysis efficiency was inhibited as shown in FIG. 6F. […]

[3] = tested on: NMDA receptor NR2C subunit mRNA in cultured granule cells

SMILES: N#Cc1cc2[nH]c(=O)c(=O)[nH]c2cc1[N+](=O)[O-] [CNQX]
- β2 transcription [1]: blocked

SMILES: [Cl-].[K+] [KC1]
- Obvious release of NRG [2]: not observed

SMILES: C[C@]12N[C@H](Cc3ccccc31)c1ccccc12 [MK801]
- Increase of NR2C transcription/expression [3]: blocked NR2C elevation in a particularly strong manner
- NR2C transcription / expression of NR2C mRNA ([3]; level increased at 1 and 100 Hz, FIG. 9C, MK801 25 μM): strongly blocked
- β2 transcription [1]: blocked
